Like-named read-outs stand apart in the source and are kept apart here.

The target in the assay is T1, human glucocorticoid receptor-α [GRX] isoform (Homo sapiens, UniProt P04150).
T1 construct: purchased Ligand Pharmaceuticals (San Diego, CA); host or cells: insect SF21 cells (baculovirus)
T1 sequence (P04150 1-777): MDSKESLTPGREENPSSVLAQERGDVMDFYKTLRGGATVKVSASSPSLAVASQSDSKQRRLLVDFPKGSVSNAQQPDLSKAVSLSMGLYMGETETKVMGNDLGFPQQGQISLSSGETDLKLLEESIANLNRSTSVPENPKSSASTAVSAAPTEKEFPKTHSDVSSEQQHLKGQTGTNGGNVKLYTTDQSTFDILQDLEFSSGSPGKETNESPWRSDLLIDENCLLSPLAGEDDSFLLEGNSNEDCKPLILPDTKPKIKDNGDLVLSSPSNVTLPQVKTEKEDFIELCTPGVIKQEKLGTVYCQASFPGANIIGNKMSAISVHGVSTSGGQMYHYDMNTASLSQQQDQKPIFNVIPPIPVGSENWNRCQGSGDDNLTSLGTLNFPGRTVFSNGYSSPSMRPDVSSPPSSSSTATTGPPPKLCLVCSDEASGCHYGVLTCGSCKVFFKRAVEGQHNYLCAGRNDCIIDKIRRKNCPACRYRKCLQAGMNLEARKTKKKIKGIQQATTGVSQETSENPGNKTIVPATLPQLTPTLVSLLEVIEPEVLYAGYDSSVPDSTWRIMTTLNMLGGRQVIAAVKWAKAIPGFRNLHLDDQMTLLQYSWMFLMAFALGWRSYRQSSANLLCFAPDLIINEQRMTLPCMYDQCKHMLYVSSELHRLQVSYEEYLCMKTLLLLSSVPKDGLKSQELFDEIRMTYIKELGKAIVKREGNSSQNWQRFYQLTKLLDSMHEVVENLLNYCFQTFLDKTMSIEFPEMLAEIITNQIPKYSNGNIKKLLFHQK
The assay can be described thus: glucocorticoid receptor (GR) cytosol binding assay, [3H]-dexamethasone competition. The text has this: For glucocorticoid receptor (OR) cytosol binding assays, the procedure described in Anal. […] Briefly, cytosol preparations of human glucocorticoid receptor-α [GRX] isoform and human progesterone receptor-A [PRA] isoform were obtained from Ligand Pharmaceuticals (San Diego, CA). Both receptor cDNAs were cloned into baculovirus expression vectors and expressed in insect SF21 cells. […] Glass fiber type C multiscreen MAFC NOB plates were from Millipore ( Burlington, MA). Hydroxyapatide Bio-Gel HTP gel was obtained from Bio-Rad Laboratories (Hercules. CA). Tris(hydroxymethyl)aminomethane (Tris), ethylenediaminetetraacetic acid (EDTA), glycerol, dithiothreitol (DTT) and sodium moylybdate were obtained from Sigma Chemicals (St. Louis, MO). Microscint-20 scintillation fluid was obtained from Packard Instrument (Meriden, CT). […] GRX and PRA binding reactions were performed in Millipore Multiscreen plates. […] Specific binding was defined as the difference between binding of [^3H]Dex in the absence and in the presence of 1µM unlabeled Dex. After an overnight incubation, 50 µL of hydroxyapatite (25 % weight/volume) slurry were added to each well and plates were incubated for 10 min at 4 °C in a plate shaker. Plates were suctioned with a Millipore vacuum manifold and each well was rinsed with 300 µL of ice-cold binding buffer. A 250 µL aliquot of Packard Microscint-20 was added to each well and the wells were shaken at room temperature for 20 minutes. The amount of radioactivity was determined with a Packard TopCount plate reader.

The mark [1] stands for this setting: [3H]-Dex ~0.9 nM, GRX cytosol, 4 °C overnight, Cheng-Prusoff, read-out: Ki (nM) GR.

For the molecule `CN(C)c1ccc(C(c2ccc(N(C)C)cc2)c2ccc(Cl)c([N+](=O)[O-])c2)cc1` [Example 2, 4',4" bis(dimethylamino)-4-chloro-3-nitrotriphenylmethane], the Ki (commonly the dissociation constant of the complex between target and ligand, obtained from inhibition or displacement) under setting [1] came to 4200 nM.
On the same count and under the same terms, the figure for `CC(=O)Nc1ccc(Cl)c(C(c2ccc(N(C)C)cc2)c2ccc(N(C)C)cc2)c1` [Example 3, 4',4" bis(dimethylamino)-5-acetamido-2-chlorotriphenylmethane] is 5150 nM.
As for `CN(C)c1ccc(C(c2ccc(N(C)C)cc2)c2ccc([N+](=O)[O-])cc2)cc1` [Example 4, 4',4" bis(dimethylamino)-4-nitrotriphenylmethane], the Ki under setting [1] was 4650 nM.
Turning to `CN(C)c1ccc(C(c2ccc(Cl)cc2)c2ccc(N(C)C)cc2)cc1` [Example 5, 4',4" bis(dimethylamino)-4-chlorotriphenylmethane], the Ki under setting [1] was found to be 4650 nM.
As to `CN(C)c1ccc(C(c2ccc(N(C)C)cc2)c2cccc(Cl)c2)cc1` [Example 6, 4',4" bis(dimethylamino)-3-chlorotriphenylmethane], the Ki under setting [1] turned out to be 2520 nM.
`CN(C)c1ccc(C(c2ccc(N(C)C)cc2)c2ccccc2Cl)cc1` [Example 7, 4',4" bis(dimethylamino)-2-chlorotriphenylmethane]: the Ki under setting [1] came to 1990 nM.
With `COc1ccccc1C(c1ccc(N(C)C)cc1)c1ccc(N(C)C)cc1` [Example 8, 4',4" bis(dimethylamino)-2-methoxytriphenylmethane], under setting [1], the Ki came out at 4290 nM.
In the case of `CN(C)c1ccc(C(c2ccc(N(C)C)cc2)c2cccc([N+](=O)[O-])c2)cc1` [Example 9, 4',4" bis(dimethylamino)-3-nitrotriphenylmethane], the Ki under setting [1] was 1380 nM.
With `CN(C)c1ccc(C(c2ccc(N(C)C)cc2)c2ccccc2C(F)(F)F)cc1` [Example 10, 4',4" bis(dimethylamino)-2-trifluoromethyltriphenylmethane], the Ki was found to be 2230 nM.
With `CN(C)c1ccc(C(c2ccc(N(C)C)cc2)c2c(Cl)cccc2[N+](=O)[O-])cc1` [Example 12, 4',4" bis(dimethylamino)-2-chloro-6-nitrotriphenylmethane], the Ki under setting [1] was determined as 3850 nM.
For `O=[N+]([O-])c1ccc(Cl)c(C(c2ccc(N3CCCCC3)cc2)c2ccc(N3CCCCC3)cc2)c1` [Example 13, 4',4" bis(N-piperidinyl)-2-chloro-5-nitrotriphenylmethane], under setting [1], the inhibition constant Ki amounted to 5000 nM.
In the case of `CN(C)c1ccc(C(c2ccc(N(C)C)cc2)c2ccccc2Br)cc1` [Example 14, 4',4" bis(dimethylamino)-2-bromotriphenylmethane], the Ki was 1510 nM.
`Cc1ccccc1C(c1ccc(N(C)C)cc1)c1ccc(N(C)C)cc1` [Example 15, 4',4" bis(dimethylamino)-2-methyltriphenylmethane] returned a Ki of 2960 nM.
`CN(C)c1ccc(C(c2ccc(N(C)C)cc2)c2cc(Cl)cc(Cl)c2Cl)cc1` [Example 16, 4',4" bis(dimethylamino)-2,3,5-trichlorotriphenylmethane] displayed a Ki of 479 nM.
In turn, `CN(C)c1ccc(C(c2ccc(N(C)C)cc2)c2cc(C(F)(F)F)ccc2Cl)cc1` [Example 17, 4',4" bis(dimethylamino)-2-chloro-5-trifluoromethyltriphenylmethane] showed an inhibition constant Ki of 4700 nM.
The same measure, in the same setting: the figure for `CN(C)c1ccc(C(c2ccc(N(C)C)cc2)c2ccc(Cl)cc2Cl)cc1` [Example 18, 4',4" bis(dimethylamino)-2,4-dichlorotriphenylmethane] is 5000 nM; for `CN(C)c1ccc(C(c2ccc(N(C)C)cc2)c2cc3c(cc2Cl)OCO3)cc1` [Example 19, 4',4" bis(dimethylamino)-2-chloro-4,5-methylenedioxytriphenylmethane] it is 1600 nM; for `CN(C)c1ccc(C(c2ccc(N(C)C)cc2)c2c(Cl)cccc2Cl)cc1` [Example 20, 4',4" bis(dimethylamino)-2,6-dichlorotriphenylmethane] it is 1930 nM.
`CN(C)c1ccc(C(c2ccc(N(C)C)cc2)c2cccc(Cl)c2Cl)cc1` [Example 21, 4',4" bis(dimethylamino)-2,3-dichlorotriphenylmethane] gave a Ki of 1890 nM.
Turning to `O=[N+]([O-])c1ccc(Cl)c(C(c2ccc(N3CCOCC3)cc2)c2ccc(N3CCOCC3)cc2)c1` [Example 22, 4',4" bis(N-morpholinyl)-2-chloro-5-nitrotriphenylmethane], the Ki under setting [1] is 386 nM.
`CN(C)c1ccc(C(c2ccc(N(C)C)cc2)c2ccccc2F)cc1` [Example 25, 4',4" bis(dimethylamino)-2-fluorotriphenylmethane]: the affinity, expressed as Ki, was 5270 nM.
In turn, `CN(C)c1ccc(C(c2ccc(N(C)C)cc2)c2ccccc2I)cc1` [Example 26, 4',4" bis(dimethylamino)-2-iodotriphenylmethane] yielded an inhibition constant (Ki) of 734 nM.
On to `Clc1cc(Cl)c(Cl)c(C(c2ccc(N3CCOCC3)cc2)c2ccc(N3CCOCC3)cc2)c1` [Example 28, 4',4" bis(N-morpholinyl)-2,3,5-trichlorotriphenylmethane], for which the Ki under setting [1] amounted to 5270 nM.
On the same count and under the same terms, with `O=[N+]([O-])c1ccc(Cl)c(C(c2ccc(N3CCCC3)cc2)c2ccc(N3CCCC3)cc2)c1` [Example 29, 4',4" bis(N-pyrrolidinyl)-2-chloro-5-nitrotriphenylmethane] the figure was 4560 nM.
With `CN(C)c1ccc(C(c2ccc(N(C)C)cc2)c2cc(I)ccc2Cl)cc1` [Example 33, 4'.4" bis(dimethylamino)-2-chloro-5-iodotriphenylmethane], the Ki came out at 2300 nM.
Turning to `CN(C)c1ccc(C(c2ccc(N(C)C)cc2)c2cc(Br)ccc2Cl)cc1` [Example 34, 4',4" bis(dimethylamino)-5-bromo-2-chlorotriphenylmethane], the Ki under setting [1] amounted to 725 nM.
For the molecule `CN(C(=O)OC(C)(C)C)c1ccc(C(c2ccc(N(C)C(=O)OC(C)(C)C)cc2)c2cc([N+](=O)[O-])ccc2Cl)cc1` [Example 35, 4',4" bis(N-(t-butoxycarbonyl) N-methylamino)-2-chloro-5-nitrotriphenylmethane], the Ki under setting [1] was 4560 nM.
Still for that read-out and setting: with `Clc1ccc(Cl)c(C(c2ccc(NCc3ccccc3)cc2)c2ccc(NCc3ccccc3)cc2)c1` [Example 37, 4',4" bis(N-benzylamino)-2,5-dichlorotriphenylmethane] the figure was 421 nM.
With `COc1ccc(C(c2ccc(N(C)C)cc2)c2ccc(N(C)C)cc2)cc1` [Example 38, 4',4"bis(dimethylamino)-4-methoxytriphenylmethane], the Ki amounted to 4710 nM.
For the molecule `CN(C)c1ccc(C(c2ccc(N3CCOCC3)cc2)c2cc([N+](=O)[O-])ccc2Cl)cc1` (centres unmarked) [Example 40, 4'-dimethylamino-4"-(N-morpholinyl)-2-chloro-5-nitrotriphenylmethane], the Ki came to 252 nM.
On to `CN(C)c1ccc(C(c2ccc(N3CCCC3)cc2)c2cc([N+](=O)[O-])ccc2Cl)cc1` (centres unmarked) [Example 41, 4'-dimethylamino-4"-(N-pyrrolidinyl)-2-chloro-5-nitrotriphenylmethane], for which the affinity, expressed as Ki, was 4490 nM.
`CCCCN(CCCC)c1ccc(C(c2ccc(N(C)C)cc2)c2cc([N+](=O)[O-])ccc2Cl)cc1` (centres unmarked) [Example 43, 4'-dimethylamino-4"-(di-n-butylamino)-2-chloro-5-nitrotriphenylmethane]: the affinity corresponds to a Ki of 4490 nM.
Still for that read-out and setting: with `Cc1cc(C(c2ccc(N(C)C)cc2)c2cc([N+](=O)[O-])ccc2Cl)ccc1N(C)C` (centres unmarked) [Example 44, 3'-methyl-4',4"-bis(dimethylamino)-2-chloro-5-nitrotriphenylmethane] the figure was 287 nM; with `CN(C)c1ccc(C(c2ccc(N3CCCCC3)cc2)c2cc([N+](=O)[O-])ccc2Cl)cc1` (centres unmarked) [Example 46, 4'-dimethylamino-4"-(N-piperidinyl)-2-chloro-5-nitrotriphenylmethane], 1160 nM; with `CN(C)c1ccc(C(c2ccc(N(C)CCOC(=O)c3ccccc3)cc2)c2cc([N+](=O)[O-])ccc2Cl)cc1` (centres unmarked) [Example 50, 4'-dimethylamino-4"-(N-methyl-N-(2-benzoyloxyethyl)amino)-2-chloro-5-nitrotriphenylmethane], 1630 nM.
